For the assay, the target named is T1, fibroblast activation protein (FAP) (Mus musculus, UniProt P97321).
T1 construct: murine FAP stably expressed in HEK293 cells (pCMV6-Kan/Neo-mFAP, Origene MC206606)
T1 sequence (P97321 1-761): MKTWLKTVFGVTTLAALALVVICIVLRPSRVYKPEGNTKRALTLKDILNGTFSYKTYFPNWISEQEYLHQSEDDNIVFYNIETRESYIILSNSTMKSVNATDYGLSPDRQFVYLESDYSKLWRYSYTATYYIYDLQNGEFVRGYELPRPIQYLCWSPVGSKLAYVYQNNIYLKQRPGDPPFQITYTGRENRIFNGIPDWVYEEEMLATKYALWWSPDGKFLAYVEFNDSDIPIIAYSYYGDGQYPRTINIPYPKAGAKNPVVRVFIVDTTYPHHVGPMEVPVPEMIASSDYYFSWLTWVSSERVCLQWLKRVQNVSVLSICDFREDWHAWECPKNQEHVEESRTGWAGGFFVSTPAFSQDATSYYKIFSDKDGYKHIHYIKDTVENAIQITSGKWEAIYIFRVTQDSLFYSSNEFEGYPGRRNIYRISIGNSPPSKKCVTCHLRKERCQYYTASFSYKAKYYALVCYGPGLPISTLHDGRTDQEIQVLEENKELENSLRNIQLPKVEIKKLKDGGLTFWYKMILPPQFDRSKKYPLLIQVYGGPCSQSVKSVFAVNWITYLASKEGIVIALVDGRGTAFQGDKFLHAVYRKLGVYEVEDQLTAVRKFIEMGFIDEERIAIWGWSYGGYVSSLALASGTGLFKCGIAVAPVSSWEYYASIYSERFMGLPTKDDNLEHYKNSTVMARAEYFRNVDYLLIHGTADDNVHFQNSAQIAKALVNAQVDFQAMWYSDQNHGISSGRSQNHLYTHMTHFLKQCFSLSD
Briefly: radioligand competition with unlabelled tracer on HEK293T-FAP cells, […] °C, […] h. Type of assay: cell-based.

Experimental findings from paper PMC12325145, “Preclinical evaluation of [^68Ga]Ga-AAZTA-FAPI-46: a novel PET tracer for targeting fibroblast activation protein (FAP)” (EJNMMI Radiopharmacy and Chemistry, 2025) are described below.

A word on the IC50: it is the concentration at which inhibition is half-maximal. Read a high IC50 as weaker potency in that assay. As to `CN(CCCN1CCN(C(=O)CCCCC2(N(CC(=O)[O-])CC(=O)[O-])CN(CC(=O)[O-])CCN(CC(=O)[O-])C2)CC1)c1ccc2nccc(C(=O)NCC(=O)N3CC(F)(F)C[C@@H]3C#N)c2c1.[68Ga+3]` [[^68Ga]Ga-AAZTA-FAPI-46], the IC50 was determined as 4.61 ± 0.21 nM.
